Data: patent US11192852B2, “Pyrazolyl and pyrimidinyl tricyclic enones as antioxidant inflammation modulators” (REATA PHARMACEUTICALS, INC., priority 2010, dated 2021)

Tested on: IFNγ-induced NO production in RAW264.7 mouse macrophages
Assay: Suppression of IFNγ-induced nitric oxide production (Griess reagent)
Type: cell-based
Details: 2 h pre-treatment (0-200 nM), then IFNγ 24 h, normalized to cell viability
From the text: Nitric Oxide Production and Cell Viability.

[1] = Mus musculus, RAW264.7, RAW264.7 cells

Cn1ncc2c1[C@@]1(C)C=C(C#N)C(=O)C(C)(C)[C@@H]1CC2 [TX63342] showed an IC50 [1] of 180 nM.

CC1(C)C(=O)C(C#N)=C[C@]2(C)[C@@H](O)CCC[C@@H]12 [TX63363] gave an IC50 [1] greater than 200 nM.

COCO[C@H]1CCC[C@H]2C(C)(C)C(=O)C(C#N)=C[C@]12C [TX63364] gave an IC50 [1] greater than 200 nM.

For Cn1cc2c(n1)[C@@]1(C)C=C(C#N)C(=O)C(C)(C)[C@@H]1CC2 [TX63432], the IC50 (RAW264.7 cells) was 166 nM.

Work on Cn1cc2c(n1)[C@@]1(C)C=C(C#N)C(=O)C(C)(C)[C@H]1C2 [TX63436] yielded an IC50 [1] greater than 200 nM.

With CC1(C)C(=O)C(C#N)=C[C@]2(C)c3nn(C4CCCCC4)cc3CC[C@@H]12 [TX63444] the IC50 [1] was 140 nM.

Work on Cn1nc2c(c1Br)CC[C@H]1C(C)(C)C(=O)C(C#N)=C[C@]21C [TX63445] yielded an IC50 [1] of 37.9 nM.

In the case of CC1(C)C(=O)C(C#N)=C[C@]2(C)c3nn(C(C)(C)C)cc3CC[C@@H]12 [TX63450], the IC50 [1] is reported as 148 nM.

With CC1(C)C(=O)C(C#N)=C[C@]2(C)C(=O)c3cnn(C(C)(C)C)c3C[C@@H]12 [TX63451] the IC50 [1] was 137 nM.

CC1(C)C(=O)C(C#N)=C[C@]2(C)c3nn(CC(F)(F)F)cc3CC[C@@H]12 [TX63454] was tested, and the IC50 [1] was 134 nM.

CC1(C)C(=O)C(C#N)=C[C@]2(C)c3nn(-c4ccccc4)cc3CC[C@@H]12 [TX63455] was tested, and the IC50 [1] was 109 nM.

CC1(C)C(=O)C(C#N)=C[C@]2(C)C(=O)c3cnn(-c4ccccc4)c3C[C@@H]12 [TX63456] gave an IC50 [1] greater than 200 nM.

For COC(=O)n1cc2c(n1)[C@@]1(C)C=C(C#N)C(=O)C(C)(C)[C@@H]1CC2 [TX63462], the IC50 [1] was 147 nM.

Molecule CC(=O)n1cc2c(n1)[C@@]1(C)C=C(C#N)C(=O)C(C)(C)[C@@H]1CC2 [TX63463] has an IC50 [1] of no less than 205 nM.

CC1(C)C(=O)C(C#N)=C[C@]2(C)c3nn(CCO)cc3CC[C@@H]12 [TX63464] gave an IC50 [1] greater than 200 nM.

In the case of CC1(C)C(=O)C(C#N)=C[C@]2(C)c3nn(-c4[nH]nc5c4CC[C@H]4C(C)(C)C(=O)C(C#N)=C[C@]54C)cc3CC[C@H]12 [TX63466], the IC50 [1] is reported as 10.4 nM.

Molecule CC1(C)C(=O)C(C#N)=C[C@]2(C)c3[nH]ncc3CC[C@@H]12 [TX63467] has an IC50 [1] greater than 200 nM.

Molecule Cn1nc2c(c1-c1cccc(Cl)c1)CC[C@H]1C(C)(C)C(=O)C(C#N)=C[C@]21C [TX63485] has an IC50 [1] of 34 nM.

Cn1nc2c(c1-c1ccc(Cl)cc1)CC[C@H]1C(C)(C)C(=O)C(C#N)=C[C@]21C [TX63486] showed an IC50 [1] of 48 nM.

Cn1cc2c(n1)[C@@]1(C)C=C(C#N)C(=O)C3(CCCC3)[C@@H]1CC2 [TX63487] gave an IC50 [1] of 85 nM.

Molecule Cn1nc2c(c1-c1ccccc1Cl)CC[C@H]1C(C)(C)C(=O)C(C#N)=C[C@]21C [TX63491] has an IC50 [1] of 35 nM.

Cn1nc2c(c1-c1ccccc1)CC[C@H]1C3(CCCC3)C(=O)C(C#N)=C[C@]21C [TX63504] showed an IC50 [1] of 20 nM.

Cn1nc2c(c1-c1ccc(F)cc1)CC[C@H]1C(C)(C)C(=O)C(C#N)=C[C@]21C [TX63507] gave an IC50 [1] of 39 nM.

Cc1ccccc1-c1c2c(nn1C)[C@@]1(C)C=C(C#N)C(=O)C(C)(C)[C@@H]1CC2 [TX63508] was tested, and the IC50 [1] was 33 nM.

COc1ccccc1-c1c2c(nn1C)[C@@]1(C)C=C(C#N)C(=O)C(C)(C)[C@@H]1CC2 [TX63509] gave an IC50 [1] of 38 nM.

With Cc1ccc(-c2c3c(nn2C)[C@@]2(C)C=C(C#N)C(=O)C(C)(C)[C@@H]2CC3)cc1 [TX63514] the IC50 [1] was 37 nM.

COc1ccc(-c2c3c(nn2C)[C@@]2(C)C=C(C#N)C(=O)C(C)(C)[C@@H]2CC3)cc1 [TX63515] was tested, and the IC50 [1] was 35 nM.

With CC1(C)C(=O)C(C#N)=C[C@]2(C)c3c(cnn3-c3ccccc3)CC[C@@H]12 [TX63524] the IC50 [1] was 68 nM.

For COc1ncc2c(n1)[C@@]1(C)C=C(C#N)C(=O)C(C)(C)[C@@H]1CC2 [TX63528], the IC50 [1] was 85 nM.

With Cc1nc(-c2ccccc2)c2c(n1)[C@@]1(C)C=C(C#N)C(=O)C(C)(C)[C@@H]1CC2 [TX63529] the IC50 [1] was 46 nM.

Work on C[C@@H]1C(=O)C(C#N)=C[C@]2(C)c3nn(C)cc3C[C@@H]12 [TX63533] yielded an IC50 [1] greater than 200 nM.

CC(C)c1ncc2c(n1)[C@@]1(C)C=C(C#N)C(=O)C(C)(C)[C@@H]1CC2 [TX63534] was tested, and the IC50 [1] was 49 nM.

CC1(C)C(=O)C(C#N)=C[C@]2(C)c3ncncc3CC[C@@H]12 [TX63542] showed an IC50 [1] of 55 nM.

CC1(C)C(=O)C(C#N)=C[C@]2(C)c3nn(-c4ccccc4)c(-c4ccccc4)c3CC[C@@H]12 [TX63544] was tested, and the IC50 [1] was 39 nM.

C[C@@H]1C(=O)C(C#N)=C[C@]2(C)c3nn(C)cc3CC[C@@H]12 [TX63551] was tested, and the IC50 [1] was 49 nM.

CC1(C)C(=O)C(C#N)=C[C@]2(C)c3[nH]c(=O)ncc3CC[C@@H]12 [TX63553] was tested, and the IC50 [1] was greater than 200 nM.

Cn1cc2c(n1)[C@@]1(C)C=C(C#N)C(=O)C(C)(C)[C@@H]1C2 [TX63559] showed an IC50 [1] greater than 200 nM.

Work on CC1(C)C(=O)C(C#N)=C[C@]2(C)c3nc(C(F)(F)F)ncc3CC[C@@H]12 [TX63567] yielded an IC50 [1] of 43 nM.

In the case of Cn1nc2c(c1-c1ccccc1)CC[C@H]1CC(=O)C=C[C@]21C [TX63570], the IC50 [1] is reported as greater than 200 nM.

In the case of Cn1nc2c(c1-c1ccccc1)CCC1=CC(=O)C=C[C@@]12C [TX63578], the IC50 [1] is reported as greater than 200 nM.

CC1(C)C(=O)C(C#N)=C[C@]2(C)c3[nH]nc(-c4ccccc4)c3CC[C@@H]12 [TX63579] showed an IC50 [1] of 22 nM.

CC1(C)C(=O)C(C#N)=C[C@]2(C)c3nc(-c4ccc(Cl)cc4)ncc3CC[C@@H]12 [TX63582] was tested, and the IC50 [1] was 33 nM.

In the case of Cc1cccc(-c2ncc3c(n2)[C@@]2(C)C=C(C#N)C(=O)C(C)(C)[C@@H]2CC3)c1 [TX63583], the IC50 [1] is reported as 33 nM.

Work on Cn1nc2c(c1-c1ccc(Oc3ccccc3)cc1)CC[C@H]1C(C)(C)C(=O)C(C#N)=C[C@]21C [TX63587] yielded an IC50 [1] of 40 nM.

CC[C@@H]1C(=O)C(C#N)=C[C@]2(C)c3nn(C)cc3CC[C@@H]12 [TX63589] was tested, and the IC50 [1] was 44 nM.

Work on COc1ccc(-c2ncc3c(n2)[C@@]2(C)C=C(C#N)C(=O)C(C)(C)[C@@H]2CC3)cc1 [TX63590] yielded an IC50 [1] of 31 nM.

In the case of Cn1nc2c(c1C1CCCCC1)CC[C@H]1C(C)(C)C(=O)C(C#N)=C[C@]21C [TX63591], the IC50 [1] is reported as 74 nM.

Cn1nc2c(c1NC(=O)OC(C)(C)C)CC[C@H]1C(C)(C)C(=O)C(C#N)=C[C@]21C [TX63594] was tested, and the IC50 [1] was greater than 200 nM.

For COc1nc(C)nc2c1CC[C@H]1C(C)(C)C(=O)C(C#N)=C[C@]21C [TX63595], the IC50 [1] was 20 nM.

With Cn1nc2c(c1-c1ccc3ccccc3c1)CC[C@H]1C(C)(C)C(=O)C(C#N)=C[C@]21C [TX63600] the IC50 [1] was 59 nM.

Cn1nc2c(c1-c1ccccc1)CC[C@H]1C(Cc3ccccc3)(Cc3ccccc3)C(=O)C(C#N)=C[C@]21C [TX63601] showed an IC50 [1] of 150 nM.

Cn1nc2c(c1-c1cccc3ccccc13)CC[C@H]1C(C)(C)C(=O)C(C#N)=C[C@]21C [TX63603] was tested, and the IC50 [1] was 61 nM.

In the case of C[C@@H]1C(=O)C(C#N)=C[C@]2(C)c3nn(C)c(Br)c3CC[C@@H]12 [TX63606], the IC50 [1] is reported as 11 nM.

CC(=O)n1nc2c(c1-c1ccccc1)CC[C@H]1C(C)(C)C(=O)C(C#N)=C[C@]21C [TX63611] showed an IC50 [1] of 22 nM.

For CC1(C)C(=O)C(C#N)=C[C@]2(C)c3nc(-c4ccccc4Cl)ncc3CC[C@@H]12 [TX63612], the IC50 [1] was 43 nM.

Cn1nc2c(c1C#N)CC[C@H]1C(C)(C)C(=O)C(C#N)=C[C@]21C [TX63613] was tested, and the IC50 [1] was 101 nM.

Molecule CC1(C)C(=O)C(C#N)=C[C@]2(C)c3c(cnc4c(Br)cnn34)CC[C@@H]12 [TX63615] has an IC50 [1] of 52 nM.

In the case of CC1(C)C(=O)C(C#N)=C[C@]2(C)c3nc4c(Br)cnn4cc3CC[C@@H]12 [TX63617], the IC50 [1] is reported as 33 nM.

Cn1nc2c(c1C(N)=O)CC[C@H]1C(C)(C)C(=O)C(C#N)=C[C@]21C [TX63619] was tested, and the IC50 [1] was greater than 200 nM.

Work on Cc1noc(C)c1-c1c2c(nn1C)[C@@]1(C)C=C(C#N)C(=O)C(C)(C)[C@@H]1CC2 [TX63625] yielded an IC50 [1] of 77 nM.

Molecule CC1(C)C(=O)C(C#N)=C[C@]2(C)c3c(cnc4c(-c5ccccc5)cnn34)CC[C@@H]12 [TX63626] has an IC50 [1] of 38 nM.

In the case of CC1(C)C(=O)C(C#N)=C[C@]2(C)c3c(cnc4ccnn34)CC[C@@H]12 [TX63627], the IC50 [1] is reported as 38 nM.

For Cc1nc(-c2ncc3c(n2)[C@@]2(C)C=C(C#N)C(=O)C(C)(C)[C@@H]2CC3)cs1 [TX63628], the IC50 [1] was 62 nM.

Work on Cn1nc2c(c1-c1ccccc1)CC[C@H]1[C@H](c3ccccc3)C(=O)C(C#N)=C[C@]21C [TX63629] yielded an IC50 [1] of 137 nM.

CCOC(=O)c1c2c(nn1C)[C@@]1(C)C=C(C#N)C(=O)C(C)(C)[C@@H]1CC2 [TX63630] showed an IC50 [1] of 38 nM.

Cn1nc2c(c1C(=O)O)CC[C@H]1C(C)(C)C(=O)C(C#N)=C[C@]21C [TX63631] showed an IC50 [1] greater than 200 nM.

In the case of CC1(C)C(=O)C(C#N)=C[C@]2(C)c3nc(-c4ccncc4)ncc3CC[C@@H]12 [TX63636], the IC50 [1] is reported as 27 nM.

With Cc1c2c(nn1C)[C@@]1(C)C=C(C#N)C(=O)C(C)(C)[C@@H]1CC2 [TX63637] the IC50 [1] was 45 nM.

CC1(C)C(=O)C(C#N)=C[C@]2(C)c3nc(-c4ccccn4)ncc3CC[C@@H]12 [TX63641] was tested, and the IC50 [1] was 43 nM.

In the case of CC1(C)C(=O)C(C#N)=C[C@]2(C)c3nn(C(=O)c4ccccc4)cc3CC[C@@H]12 [TX63642], the IC50 [1] is reported as 147 nM.

With COc1nc(C)nc2c1CC[C@H]1[C@H](C)C(=O)C(C#N)=C[C@]21C [TX63646] the IC50 [1] was 8.5 nM.

In the case of C[C@@H]1C(=O)C(C#N)=C[C@]2(C)c3c(c(Br)nn3C)CC[C@@H]12 [TX63649], the IC50 [1] is reported as 21 nM.

In the case of Cc1cccc(-c2c3c(nn2C)[C@@]2(C)C=C(C#N)C(=O)[C@@H](C)[C@@H]2CC3)c1 [TX63650], the IC50 [1] is reported as 6.1 nM.

Molecule C#Cc1c2c(nn1C)[C@@]1(C)C=C(C#N)C(=O)C(C)(C)[C@@H]1CC2 [TX63651] has an IC50 [1] of 23 nM.

C[C@@H]1C(=O)C(C#N)=C[C@]2(C)c3nn(C)c(C(=O)N(C)C)c3CC[C@@H]12 [TX63655] was tested, and the IC50 [1] was greater than 200 nM.

CC1=C2CCc3c(nn(C)c3-c3cccc(C)c3)[C@@]2(C)C=C(C#N)C1=O [TX63656] showed an IC50 [1] greater than 200 nM.

Work on C[C@@H]1C(=O)C(C#N)=C[C@]2(C)c3nn(C)c(-c4cccc(F)c4)c3CC[C@@H]12 [TX63659] yielded an IC50 [1] of 8.1 nM.

CC1=C2CCc3c(nn(C)c3-c3cccc(F)c3)[C@@]2(C)C=C(C#N)C1=O [TX63663] gave an IC50 [1] of 108 nM.
